Measured values reported in patent US12421242B2, “Substituted tetrahydropyrrolo-pyridinone compounds and their use in treating medical conditions” (Karuna Therapeutics, Inc., priority 2022, dated 2025).

Columns and labels:
rM4 receptors = target: T1, rM4 receptors (Rattus norvegicus, UniProt P08485); assay: Rat M4 PAM pERK assay; format: cell-based; conditions: PAM mode
T1 construct: expressed in transfected cells; host or cells: CHO cells
T1 sequence (P08485 1-478): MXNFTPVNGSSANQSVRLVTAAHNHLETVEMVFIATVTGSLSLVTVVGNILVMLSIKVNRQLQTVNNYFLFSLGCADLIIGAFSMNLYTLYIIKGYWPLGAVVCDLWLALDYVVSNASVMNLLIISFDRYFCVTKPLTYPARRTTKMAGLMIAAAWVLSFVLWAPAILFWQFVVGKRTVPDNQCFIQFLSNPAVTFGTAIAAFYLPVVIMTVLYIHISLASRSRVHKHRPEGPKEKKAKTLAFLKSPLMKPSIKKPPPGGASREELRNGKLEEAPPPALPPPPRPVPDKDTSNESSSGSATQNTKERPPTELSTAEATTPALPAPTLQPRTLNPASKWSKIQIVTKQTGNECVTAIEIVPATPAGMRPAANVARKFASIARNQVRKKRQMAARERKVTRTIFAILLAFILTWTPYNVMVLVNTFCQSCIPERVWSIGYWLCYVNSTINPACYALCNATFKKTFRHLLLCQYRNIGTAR
Protocol: (§1) Chinese hamster ovary (CHO) cells expressing either hM4 or rM4 receptors were frozen in assay ready vials (5×10^6 cells/vial) after bulking-up in culture. The day before an assay, vial(s) were thawed and cells seeded in 384 well white proxiplates at 1000/well for hM4 cells and at 2000/well for rM4 cells, in 10 μL of growth media (Hams/F12 with glutamax and 10% FCS) and incubated overnight at 37° C./5% CO2.
(§2) On the following morning, the growth media was removed by ‘flicking out’ over a bin, patting the inverted plate onto tissue, and then replacing with 10 μL of wash media (Hams/F12 with glutamax and 8 mM HEPES, NB: serum free). Then, the wash media was removed in the same way and replaced with 8 μL/well of the serum free media. Plates were then re-incubated for a further 4 hours at 37° C./5% CO2.
(§3) Compounds for testing were solubilized to 10 mM in DMSO and compound addition plates, consisting of ten-point concentration response curves (CRC) in duplicate points (10 μM top concentration, […]), were prepared by acoustic dispensing and the compound management group.
(§4) After the 4-hour incubation in serum free media, a 4 μL aliquot of the 3× compound solution containing an EC20 of acetylcholine (10 nM final concentration) was added to the cell plate using a 384 well plate to plate transfer. Then, the plate lid was replaced, and the cells incubated for 5 mins at 37° C./5% CO2. Following this final incubation, all cellular processes were stopped by the addition of 4 μL/well of lysis and blocking buffer and plates were incubated for 30 minutes at RT on an orbital shaker (gentle setting). Then, a final addition of 4 μL/well of antibody detection mix, containing both the Europium-Cryptate (donor) and d2 (acceptor) tagged detection components, was added followed by a further 2-hour incubation at RT, and then the plate was read using a TR-FRET (time resolved fluorescence resonance energy transfer) based protocol.

hM4 receptors = target: T2, hM4 receptors (Homo sapiens, UniProt P08173); assay: Human M4 PAM pERK assay; format: cell-based; conditions: PAM mode
T2 construct: expressed in transfected cells; host or cells: CHO cells
T2 sequence (P08173 1-479): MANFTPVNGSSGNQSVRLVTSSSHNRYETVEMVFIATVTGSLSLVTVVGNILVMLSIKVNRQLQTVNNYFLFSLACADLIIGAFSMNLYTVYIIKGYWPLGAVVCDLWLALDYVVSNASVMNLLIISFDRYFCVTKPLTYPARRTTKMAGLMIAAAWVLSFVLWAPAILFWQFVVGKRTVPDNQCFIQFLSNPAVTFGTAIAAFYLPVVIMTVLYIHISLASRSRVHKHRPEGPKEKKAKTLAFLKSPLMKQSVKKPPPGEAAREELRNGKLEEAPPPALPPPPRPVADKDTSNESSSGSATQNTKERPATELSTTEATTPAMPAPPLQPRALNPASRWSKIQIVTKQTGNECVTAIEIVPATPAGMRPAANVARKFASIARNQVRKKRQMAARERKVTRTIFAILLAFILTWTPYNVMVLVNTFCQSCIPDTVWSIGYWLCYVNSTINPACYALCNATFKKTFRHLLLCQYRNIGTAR
Protocol: as §1, §2, §3, §4

Cc1cc(=O)n(C)c2c1C(C)N(C(=O)c1ccc3nc(C(F)(F)F)sc3c1)C2 (single isomer, unassigned) [Compound I-101]
EC50 (rM4 receptors): > 2000 nM | EC50 (hM4 receptors): 100 to 500 nM

Cc1c2c(n(C)c(=O)c1Cl)CN(C(=O)c1ncc3ccccn13)C2 [Compound I-31]
EC50 (rM4 receptors): > 2000 nM | EC50 (hM4 receptors): > 2000 nM

Cc1c2c(n(C)c(=O)c1Cl)CN(C(=O)c1cnn(C(F)F)c1)[C@@H]2C [Compound I-77]
EC50 (rM4 receptors): 100 to 500 nM | EC50 (hM4 receptors): < 100 nM

Cc1c2c(n(C)c(=O)c1Cl)CN(C(=O)c1cnn(CC3CCCC3)c1)C2 [Compound I-55]
EC50 (rM4 receptors): > 2000 nM | EC50 (hM4 receptors): 100 to 500 nM

Cc1c2c(n(C)c(=O)c1Cl)CN(C(=O)c1cnn(Cc3cccnc3)c1)C2 [Compound I-59, 3-Chloro-1,4-dimethyl-6-(1-(pyridin-3-ylmethyl)-1H-pyrazole-4-carbonyl)-1,5,6,7-tetrahydro-2H-pyrrolo[3,4-b]pyridin-2-one]
EC50 (rM4 receptors): > 2000 nM | EC50 (hM4 receptors): 500 to 2000 nM

Cc1c2c(n(C)c(=O)c1Cl)CN(C(=O)c1ccc3nonc3c1)C2 [Compound I-43]
EC50 (rM4 receptors): 500 to 2000 nM | EC50 (hM4 receptors): 100 to 500 nM

Cc1c2c(n(C)c(=O)c1Cl)CN(C(=O)c1cnn(CC3(C)COC3)c1)C2 [Compound I-53, 3-Chloro-1,4-dimethyl-6-(1-((3-methyloxetan-3-yl)methyl)-1H-pyrazole-4-carbonyl)-1,5,6,7-tetrahydro-2H-pyrrolo[3,4-b]pyridin-2-one]
EC50 (rM4 receptors): > 2000 nM | EC50 (hM4 receptors): > 2000 nM

Cc1c2c(n(C)c(=O)c1Cl)CN(C(=O)c1cnc(CC(F)(F)F)s1)C2 [Compound I-39]
EC50 (rM4 receptors): > 2000 nM | EC50 (hM4 receptors): 500 to 2000 nM

Cc1c2c(n(C)c(=O)c1Cl)CN(C(=O)c1cn3c(n1)COCC3)C2 [Compound I-25]
EC50 (rM4 receptors): > 2000 nM | EC50 (hM4 receptors): 500 to 2000 nM

Cc1c2c(n(C)c(=O)c1Cl)CN(C(=O)c1cnn(CC3CCOC3)c1)C2 (stereo not drawn) [Compound I-56]
EC50 (rM4 receptors): > 2000 nM | EC50 (hM4 receptors): > 2000 nM

Cc1c2c(n(C)c(=O)c1Cl)CN(C(=O)c1ccn(C(F)(F)F)n1)C2 [Compound I-16]
EC50 (rM4 receptors): > 2000 nM | EC50 (hM4 receptors): 100 to 500 nM

Cc1c2c(n(C)c(=O)c1Cl)CN(C(=O)c1cnc(C3CCC3)s1)C2 [Compound I-35]
EC50 (rM4 receptors): > 2000 nM | EC50 (hM4 receptors): 100 to 500 nM

Cc1c2c(n(C)c(=O)c1Cl)CN(C(=O)c1cnn(Cc3ccccc3)c1)C2 [Compound I-23]
EC50 (rM4 receptors): 500 to 2000 nM | EC50 (hM4 receptors): 100 to 500 nM

Cc1c2c(n(C)c(=O)c1Cl)CN(C(=O)c1cnn3c1CCC3)C2 [Compound I-37]
EC50 (rM4 receptors): > 2000 nM | EC50 (hM4 receptors): > 2000 nM

Cc1c2c(n(C)c(=O)c1Cl)CN(C(=O)c1cn(C)cn1)C2 [Compound I-4]
EC50 (rM4 receptors): > 2000 nM | EC50 (hM4 receptors): 500 to 2000 nM

Cc1c2c(n(C)c(=O)c1C)CN(C(=O)c1cnn(C(F)(F)F)c1)[C@@H]2C [Compound I-78, (R)-1,3,4,5-Tetramethyl-6-(1-(trifluoromethyl)-1H-pyrazole-4-carbonyl)-1,5,6,7-tetrahydro-2H-pyrrolo[3,4-b]pyridin-2-one]
EC50 (rM4 receptors): 100 to 500 nM | EC50 (hM4 receptors): < 100 nM

Cc1c2c(n(C)c(=O)c1Cl)CN(C(=O)c1cnn(C(C)C)c1)C2 [Compound I-10]
EC50 (rM4 receptors): > 2000 nM | EC50 (hM4 receptors): 100 to 500 nM

Cc1c2c(n(C)c(=O)c1Cl)CN(C(=O)c1cnn(Cc3ccncc3)c1)C2 [Compound I-60]
EC50 (rM4 receptors): > 2000 nM | EC50 (hM4 receptors): 100 to 500 nM

COc1c2c(n(C)c(=O)c1C)CN(C(=O)c1cnc(CC3CC3)s1)C2 [Compound I-86]
EC50 (rM4 receptors): > 2000 nM | EC50 (hM4 receptors): 100 to 500 nM

Cc1c2c(n(C)c(=O)c1Cl)CN(C(=O)c1cnn(CC(F)(F)F)c1)C2 [Compound I-61]
EC50 (rM4 receptors): > 2000 nM | EC50 (hM4 receptors): 500 to 2000 nM

COc1c2c(n(C)c(=O)c1C)CN(C(=O)c1cnn(CC(F)(F)F)c1)C2 [Compound I-85, 4-Methoxy-1,3-dimethyl-6-(1-(2,2,2-trifluoroethyl)-1H-pyrazole-4-carbonyl)-1,5,6,7-tetrahydro-2H-pyrrolo[3,4-b]pyridin-2-one]
EC50 (rM4 receptors): > 2000 nM | EC50 (hM4 receptors): 500 to 2000 nM

COCc1ncc(C(=O)N2Cc3c(C)c(Cl)c(=O)n(C)c3C2)s1 [Compound I-38]
EC50 (rM4 receptors): > 2000 nM | EC50 (hM4 receptors): 100 to 500 nM

Cc1c2c(n(C)c(=O)c1Cl)CN(C(=O)c1cnn(CC(C)C)c1)C2 [Compound I-5]
EC50 (rM4 receptors): > 2000 nM | EC50 (hM4 receptors): 500 to 2000 nM

Cc1c2c(n(C)c(=O)c1Cl)CN(C(=O)c1cnc(CC3CC3(F)F)s1)C2 (stereo not drawn) [Compound I-65]
EC50 (rM4 receptors): 500 to 2000 nM | EC50 (hM4 receptors): < 100 nM

Cc1c2c(n(CC3CC3)c(=O)c1Cl)CN(C(=O)c1ccc3nc(C4CCC4)sc3c1)C2 [Compound I-70]
EC50 (rM4 receptors): 100 to 500 nM | EC50 (hM4 receptors): 100 to 500 nM

Cc1c2c(n(C)c(=O)c1C(F)(F)F)CN(C(=O)c1cnn(C)c1)C2 [Compound I-110, 1,4-Dimethyl-6-(1-methyl-1H-pyrazole-4-carbonyl)-3-(trifluoromethyl)-1,5,6,7-tetrahydro-2H-pyrrolo[3,4-b]pyridin-2-one]
EC50 (rM4 receptors): > 2000 nM | EC50 (hM4 receptors): 100 to 500 nM

Cc1c2c(n(C)c(=O)c1Cl)CN(C(=O)c1cn(C(F)(F)F)cn1)C2 [Compound I-15]
EC50 (rM4 receptors): > 2000 nM | EC50 (hM4 receptors): 100 to 500 nM

Cc1c2c(n(C)c(=O)c1Cl)CN(C(=O)c1cn3c(n1)CCC3)C2 [Compound I-33]
EC50 (rM4 receptors): > 2000 nM | EC50 (hM4 receptors): 100 to 500 nM

Cc1c2c(n(C)c(=O)c1Cl)CN(C(=O)c1ccc3nc(C4CCC4)sc3c1)C2 [Compound I-51, 3-Chloro-6-(2-cyclobutylbenzo[d]thiazole-6-carbonyl)-1,4-dimethyl-1,5,6,7-tetrahydro-2H-pyrrolo[3,4-b]pyridin-2-one]
EC50 (rM4 receptors): 100 to 500 nM | EC50 (hM4 receptors): < 100 nM

Cc1c2c(n(C)c(=O)c1Cl)CN(C(=O)c1ccc3cncn3c1)C2 [Compound I-47]
EC50 (rM4 receptors): 500 to 2000 nM | EC50 (hM4 receptors): < 100 nM

Cc1c2c(n(C)c(=O)c1Cl)CN(C(=O)c1cnc(CC(C)C)s1)C2 [Compound I-34]
EC50 (rM4 receptors): 500 to 2000 nM | EC50 (hM4 receptors): 100 to 500 nM

Cc1c2c(n(C)c(=O)c1Cl)CN(C(=O)c1cnn(C)c1)C2 [Compound I-2]
EC50 (rM4 receptors): > 2000 nM | EC50 (hM4 receptors): < 100 nM

Cc1c2c(n(C)c(=O)c1Cl)CN(C(=O)c1cc(CC(F)(F)F)on1)C2 [Compound I-58, 3-Chloro-1,4-dimethyl-6-(5-(2,2,2-trifluoroethyl)isoxazole-3-carbonyl)-1,5,6,7-tetrahydro-2H-pyrrolo[3,4-b]pyridin-2-one]
EC50 (rM4 receptors): > 2000 nM | EC50 (hM4 receptors): 500 to 2000 nM

Cc1c2c(n(CC3CC3)c(=O)c1Cl)CN(C(=O)c1cnc(CC3CC3)s1)C2 [Compound I-69, 3-Chloro-1-(cyclopropylmethyl)-6-(2-(cyclopropylmethyl)thiazole-5-carbonyl)-4-methyl-1,5,6,7-tetrahydro-2H-pyrrolo[3,4-b]pyridin-2-one]
EC50 (rM4 receptors): > 2000 nM | EC50 (hM4 receptors): 100 to 500 nM

Cc1c2c(n(C)c(=O)c1Cl)CN(C(=O)c1cnn(Cc3ccc(C(F)(F)F)nc3)c1)C2 [Compound I-57]
EC50 (rM4 receptors): > 2000 nM | EC50 (hM4 receptors): > 2000 nM

Cc1c2c(n(C)c(=O)c1C)CN(C(=O)c1ccc3nc(C4CC4)sc3c1)C2 [Compound I-111, 6-(2-Cyclopropylbenzo[d]thiazole-6-carbonyl)-1,3,4-trimethyl-1,5,6,7-tetrahydro-2H-pyrrolo[3,4-b]pyridin-2-one]
EC50 (rM4 receptors): 100 to 500 nM | EC50 (hM4 receptors): > 2000 nM

Cc1c2c(n(C)c(=O)c1Cl)CN(C(=O)c1ccc(C(C)(C)C)s1)C2 [Compound I-7]
EC50 (rM4 receptors): > 2000 nM | EC50 (hM4 receptors): 500 to 2000 nM

Cc1cc(=O)n(C)c2c1C(C)N(C(=O)c1cnn(C(F)(F)F)c1)C2 (stereo not drawn) [Compound I-93]
EC50 (rM4 receptors): > 2000 nM | EC50 (hM4 receptors): < 100 nM

Cc1c2c(n(C)c(=O)c1Cl)CN(C(=O)c1ccc3c(c1)COC3)C2 [Compound I-50]
EC50 (rM4 receptors): 100 to 500 nM | EC50 (hM4 receptors): 100 to 500 nM
